# Measured values: ChEMBL document CHEMBL1201862, “PubChem BioAssay data set” (2004)
#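 Results reflect a 48-hour exposure of cells in 96-well plates to compound at five concentrations. GI50: concentration for 50% inhibition of growth.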 Calls of active or inactive are those of the source. Rule as the data show it: active = GI50 up to about 1.1 µM and inactive = higher.
# Key:
# Test in all cases: inhibition of tumour cell growth, NCI panel, 48 h
# 786-0 = system: 786-0
# A498 = system: A498
# A549 = system: A549
# ACHN = system: ACHN
# BT-549 = system: BT-549
# CAKI-1 = system: CAKI-1
# CCRF-CEM = system: CCRF-CEM
# COLO 205 = system: COLO 205
# DU-145 = system: DU-145
# EKVX = system: EKVX
# HCC 2998 = system: HCC 2998
# HCT-116 = system: HCT-116
# HCT-15 = system: HCT-15
# HL-60 = system: HL-60
# HOP-62 = system: HOP-62
# HOP-92 = system: HOP-92
# HT-29 = system: HT-29
# Hs-578T = system: Hs-578T
# IGROV-1 = system: IGROV-1
# K562 = system: K562
# KM12 = system: KM12
# LOX IMVI = system: LOX IMVI
# M14 = system: M14
# MCF7 = system: MCF7
# MDA-MB-231 = system: MDA-MB-231
# MDA-MB-435 = system: MDA-MB-435
# MDA-N = system: MDA-N
# MOLT-4 = system: MOLT-4
# Malme-3M = system: Malme-3M
# NCI-H226 = system: NCI-H226
# NCI-H23 = system: NCI-H23
# NCI-H460 = system: NCI-H460
# NCI-H522 = system: NCI-H522
# NCI/ADR-RES = system: NCI/ADR-RES
# OVCAR-3 = system: OVCAR-3
# OVCAR-4 = system: OVCAR-4
# OVCAR-5 = system: OVCAR-5
# OVCAR-8 = system: OVCAR-8
# PC-3 = system: PC-3
# RPMI-8226 = system: RPMI-8226
# RXF 393 = system: RXF 393
# SF-268 = system: SF-268
# SF-295 = system: SF-295
# SF-539 = system: SF-539
# SK-MEL-28 = system: SK-MEL-28
# SK-MEL-2 = system: SK-MEL-2
# SK-MEL-5 = system: SK-MEL-5
# SK-OV-3 = system: SK-OV-3
# SN12C = system: SN12C
# SNB-19 = system: SNB-19
# SNB-75 = system: SNB-75
# SW-620 = system: SW-620
# T47D = system: T47D
# TK-10 = system: TK-10
# U-251 = system: U-251
# UACC-257 = system: UACC-257
# UACC-62 = system: UACC-62
# UO-31 = system: UO-31
# SR = system: SR
compound,measurement,setting,value
Cc1ccc2c(n1)C(=O)c1ccccc1C2=O,GI50,786-0,27.6 µM (inactive)
same,GI50,A498,31.6 µM (inactive)
same,GI50,A549,21.2 µM (inactive)
same,GI50,ACHN,31.8 µM (inactive)
same,GI50,BT-549,32.4 µM (inactive)
same,GI50,CAKI-1,39.2 µM (inactive)
same,GI50,CCRF-CEM,37.7 µM (inactive)
same,GI50,COLO 205,16.9 µM (inactive)
same,GI50,DU-145,17.3 µM (inactive)
same,GI50,EKVX,27.5 µM (inactive)
same,GI50,HCC 2998,28.8 µM (inactive)
same,GI50,HCT-116,22.9 µM (inactive)
same,GI50,HCT-15,25.8 µM
same,GI50,HL-60,15.4 µM (inactive)
same,GI50,HOP-62,38 µM (inactive)
same,GI50,HOP-92,51.6 µM (inactive)
same,GI50,HT-29,23.5 µM (inactive)
same,GI50,Hs-578T,72.3 µM (inactive)
same,GI50,IGROV-1,24.3 µM (inactive)
same,GI50,K562,30.2 µM (inactive)
same,GI50,KM12,30.1 µM (inactive)
same,GI50,LOX IMVI,17.6 µM (inactive)
same,GI50,M14,> 44.5 µM (inactive)
same,GI50,MCF7,17.3 µM (inactive)
same,GI50,MDA-MB-231,23.3 µM (inactive)
same,GI50,MDA-MB-435,18.2 µM (inactive)
same,GI50,MDA-N,> 45.6 µM (inactive)
same,GI50,MOLT-4,33 µM (inactive)
same,GI50,Malme-3M,9.35 µM (inactive)
same,GI50,NCI-H226,38 µM (inactive)
same,GI50,NCI-H23,14.7 µM (inactive)
same,GI50,NCI-H460,15.8 µM (inactive)
same,GI50,NCI-H522,21.7 µM (inactive)
same,GI50,NCI/ADR-RES,24.4 µM (inactive)
same,GI50,OVCAR-3,3.53 µM (inactive)
same,GI50,OVCAR-4,18.7 µM (inactive)
same,GI50,OVCAR-5,21.9 µM (inactive)
same,GI50,OVCAR-8,26.7 µM (inactive)
same,GI50,PC-3,23.9 µM (inactive)
same,GI50,RPMI-8226,32.6 µM (inactive)
same,GI50,RXF 393,24.8 µM (inactive)
same,GI50,SF-268,31.3 µM (inactive)
same,GI50,SF-295,25.8 µM (inactive)
same,GI50,SF-539,> 56.5 µM (inactive)
same,GI50,SK-MEL-28,51.5 µM (inactive)
same,GI50,SK-MEL-2,28.8 µM (inactive)
same,GI50,SK-MEL-5,6.84 µM (inactive)
same,GI50,SK-OV-3,77.4 µM (inactive)
same,GI50,SN12C,26.4 µM (inactive)
same,GI50,SNB-19,26.2 µM (inactive)
same,GI50,SNB-75,29.8 µM (inactive)
same,GI50,SW-620,31.7 µM (inactive)
same,GI50,T47D,30.3 µM (inactive)
same,GI50,TK-10,71.3 µM (inactive)
same,GI50,U-251,27.8 µM (inactive)
same,GI50,UACC-257,19.1 µM (inactive)
same,GI50,UACC-62,20.5 µM (inactive)
same,GI50,UO-31,32.5 µM (inactive)
Cc1csc2c1-n1cccc1C2=O,GI50,786-0,> 100 µM (inactive)
same,GI50,A498,36 µM (inactive)
same,GI50,A549,> 100 µM (inactive)
same,GI50,ACHN,> 100 µM (inactive)
same,GI50,BT-549,> 100 µM (inactive)
same,GI50,CAKI-1,65.8 µM (inactive)
same,GI50,CCRF-CEM,> 100 µM (inactive)
same,GI50,COLO 205,> 100 µM (inactive)
same,GI50,DU-145,> 100 µM (inactive)
same,GI50,EKVX,64.3 µM (inactive)
same,GI50,HCC 2998,> 100 µM (inactive)
same,GI50,HCT-116,> 100 µM (inactive)
same,GI50,HCT-15,> 100 µM
same,GI50,HOP-62,53 µM (inactive)
same,GI50,HT-29,> 100 µM (inactive)
same,GI50,Hs-578T,> 100 µM (inactive)
same,GI50,IGROV-1,> 100 µM (inactive)
same,GI50,K562,> 100 µM (inactive)
same,GI50,KM12,> 100 µM (inactive)
same,GI50,LOX IMVI,> 100 µM (inactive)
same,GI50,M14,> 100 µM (inactive)
same,GI50,MCF7,> 100 µM (inactive)
same,GI50,MDA-MB-231,> 100 µM (inactive)
same,GI50,MDA-MB-435,67.3 µM (inactive)
same,GI50,MDA-N,99.1 µM (inactive)
same,GI50,MOLT-4,> 100 µM (inactive)
same,GI50,Malme-3M,> 100 µM (inactive)
same,GI50,NCI-H226,> 100 µM (inactive)
same,GI50,NCI-H460,> 100 µM (inactive)
same,GI50,NCI-H522,> 100 µM (inactive)
same,GI50,NCI/ADR-RES,> 100 µM (inactive)
same,GI50,OVCAR-3,> 100 µM (inactive)
same,GI50,OVCAR-4,> 100 µM (inactive)
same,GI50,OVCAR-5,> 100 µM (inactive)
same,GI50,OVCAR-8,> 100 µM (inactive)
same,GI50,PC-3,> 100 µM (inactive)
same,GI50,RPMI-8226,> 100 µM (inactive)
same,GI50,RXF 393,98.4 µM (inactive)
same,GI50,SF-268,> 100 µM (inactive)
same,GI50,SF-295,> 100 µM (inactive)
same,GI50,SK-MEL-28,> 100 µM (inactive)
same,GI50,SK-MEL-2,> 100 µM (inactive)
same,GI50,SK-MEL-5,> 100 µM (inactive)
same,GI50,SK-OV-3,> 100 µM (inactive)
same,GI50,SN12C,> 100 µM (inactive)
same,GI50,SNB-19,> 100 µM (inactive)
same,GI50,SNB-75,> 100 µM (inactive)
same,GI50,SR,> 100 µM (inactive)
same,GI50,SW-620,> 100 µM (inactive)
same,GI50,T47D,> 100 µM (inactive)
same,GI50,TK-10,> 100 µM (inactive)
same,GI50,U-251,> 100 µM (inactive)
same,GI50,UACC-257,> 100 µM (inactive)
same,GI50,UACC-62,> 100 µM (inactive)
same,GI50,UO-31,43.3 µM (inactive)
